# Reference: PMC9227351, “A Novel Antihypertensive Pentapeptide Identified in Quinoa Bran Globulin Hydrolysates: Purification, In Silico Characterization, Molecular Docking with ACE and Stability against Different Food-Processing Conditions” (Nutrients, 2022)
# Entries after “also recorded” stand apart in the source; their conditions may differ. Ends that are not written are not given here.
# How the values were obtained:
# [1] = proline-rich literature peptides; cited from earlier work
# Excerpt: The main reason was the structural characteri ...
# ACE [2] = conditions: literature peptides; ref 13 (GYGYNY), 20 (SSYYPFK), 34 (NMAINPSKENLCSTFCK); read-out: IC50 of ACE-inhibitory activity; cited from earlier work
# Excerpt: Obviously, SAPPP was a pentapeptide of high content of Pro. […] Some special acid residues including aromatic amino acids (Phe, Trp and Tyr) and Pro in the C-terminal tripeptides can tightly bind with active sites of ACE and show ... || Peptides can bind to the key binding pockets of ACE (S1, S1′, and S2′), and disturb the combination of ACE and the […] (angiotensin-I or bradykinin), thereby showing a competitive inhibition pattern. […] Moreover, the docking T-Score of SAPPP (8.88) was higher than the required value (6.0).
# ACE [3] = test: Stability against simulated gastrointestinal digestion, read out as ACE-inhibitory activity; assay type: in vitro ADME; conditions: peptide 1 mg/mL; pepsin pH 2.0 37 °C 90 min, then trypsin/bile salt pH 6.8 37 °C 180 min; activity before versus after digestion; p > 0.05
# Protocol: As per the same procedure described by Jimsheena and Gowda, inhibition activity on ACE was evaluated by comparing the quantity of produced hippuric acid before and after the addition of the peptides. IC50 value was calculated from the regression equation of ACE inhibition percentage versus different concentrations of the sample, and defined as the concentration of sample when ACE-inhibitory activity was 50%.
# Following the method of Sun et al., mixtures of trypsin (0.45 g), pig bile salt (3 g) and NaHCO3 (6.25 g) dissolved in 100 mL of dH2O (pH 6.8) were used to simulate intestinal fluid, whereas pepsin (40 mg) and NaCl (0.877 g) dissolved in 100 mL of dH2O (pH 2.0) were used as gastric fluid. Peptide solutions (dissolved in ultrapure water, 1 mg/mL) were incubated at 37 °C in a stirring bath (140 r/min) for 15 min; then, the simulated gastric fluid was added (gastric fluid: peptide solution = 1:10 v/v) and incubated at 37 °C (140 r/min) for 90 min. Then, the reaction solution was adjusted to pH 6.8 with Na2HPO4. The simulated intestinal fluid (the fluid: peptide solution = 1:10, v/v) was added and stirred (140 r/min) at 37 °C for 180 min. All the reaction solutions were heated at 100 °C for 8 min to inactivate the enzyme. Stability was calculated by comparing the ACE-inhibitory activities of the peptides before and after the digestion.
Substance,Stability against gastrointestinal digestion [1],IC50 (ACE [2]),Stability of ACE-inhibitory activity during simulated gastrointestinal digestion (ACE [3])
ELHPQ [proline-rich peptide identified in canary seed],excellent stability,,
KPVPR [proline-rich peptide identified in canary seed],excellent stability,,
NMAINPSKENLCSTFCK,,129 µM,
SSYYPFK,excellent stability,91.8 µM,
LHPQ [proline-rich peptide identified in canary seed],excellent stability,,
GYGYNY,,384 µM,
"SAPPP [SAPPP, Ser-Ala-Pro-Pro-Pro]",,,resistant; also recorded: relatively stable
